Earlier results, collected in US20100093842A1, “Laulimalide Analogs and Uses Thereof” (EISAI CO. LTD., priority 2003, published 2010).

Experiments:
tubulin = settings: low micromolar concentrations; compared with equivalent concentrations of Laulimalide
[1] = test system: multi-drug resistant (MDR) cell lines that over express the P-glycoprotein pump (P-gp); settings: cell lines over expressing P-gp

Row | Compound | rate of polymerization (tubulin) | tubulin polymer formed (tubulin) | in vitro anti-mitotic activity (several cancer lines; in vitro) [nM] | cytotoxic activity (several cancer lines; several cancer lines) | activity against multi-drug resistant (MDR) cell lines [1]
1 | CC(=O)O[C@H]1C(=O)[C@@]2(C)[C@H]([C@H](OC(=O)c3ccccc3)[C@]3(O)C[C@H](OC(=O)[C@H](O)[C@@H](NC(=O)c4ccccc4)c4ccccc4)C(C)=C1C3(C)C)[C@]1(OC(C)=O)CO[C@@H]1C[C@@H]2O [Paclitaxel] | faster | more tubulin polymer was formed | – | – | –
2 | C=C1C[C@H](C)C[C@@H]2CC=C[C@@H](C/C=C\C(=O)O[C@H]([C@@H](O)/C=C/[C@@H]3CC(C)=CCO3)C[C@@H]3O[C@H]3[C@@H](O)C1)O2 [Laulimalide] | – | – | 5 to 12 | potent cytotoxic activity | show activity against multi-drug resistant (MDR) cell lines
